Assay results: US10689362B2, “Quinoxaline compounds as type III receptor tyrosine kinase inhibitors” (Development Center for Biotechnology, priority 2016, dated 2020)

Experiments:
[1] = test system: THP-1 human acute monocytic leukemia cell harboring NRAS G12D mutation; assay: THP-1 cell proliferation assay (counter screen, CellTiter-96); format: cell-based; conditions: Cytotoxicity, THP-1 cells (counter screen), 72 hours
Method in brief: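 THP-1 cells, RTK-independent owing to NRAS G12D, seeded at 5000/well, incubated overnight at 37 °C/5% CO2, then exposed to increasing compound concentrations for 72 h. CellTiter96 AQueous One reagent added for 4 h; viability from absorbance at 490 nm.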

[2] = target: CSF-1R kinase (Homo sapiens (Human), UniProt P07333); assay: CSF-1R kinase assay (AlphaScreen); format: biochemical; conditions: class symbol
Sequence of CSF-1R kinase (P07333 20-972): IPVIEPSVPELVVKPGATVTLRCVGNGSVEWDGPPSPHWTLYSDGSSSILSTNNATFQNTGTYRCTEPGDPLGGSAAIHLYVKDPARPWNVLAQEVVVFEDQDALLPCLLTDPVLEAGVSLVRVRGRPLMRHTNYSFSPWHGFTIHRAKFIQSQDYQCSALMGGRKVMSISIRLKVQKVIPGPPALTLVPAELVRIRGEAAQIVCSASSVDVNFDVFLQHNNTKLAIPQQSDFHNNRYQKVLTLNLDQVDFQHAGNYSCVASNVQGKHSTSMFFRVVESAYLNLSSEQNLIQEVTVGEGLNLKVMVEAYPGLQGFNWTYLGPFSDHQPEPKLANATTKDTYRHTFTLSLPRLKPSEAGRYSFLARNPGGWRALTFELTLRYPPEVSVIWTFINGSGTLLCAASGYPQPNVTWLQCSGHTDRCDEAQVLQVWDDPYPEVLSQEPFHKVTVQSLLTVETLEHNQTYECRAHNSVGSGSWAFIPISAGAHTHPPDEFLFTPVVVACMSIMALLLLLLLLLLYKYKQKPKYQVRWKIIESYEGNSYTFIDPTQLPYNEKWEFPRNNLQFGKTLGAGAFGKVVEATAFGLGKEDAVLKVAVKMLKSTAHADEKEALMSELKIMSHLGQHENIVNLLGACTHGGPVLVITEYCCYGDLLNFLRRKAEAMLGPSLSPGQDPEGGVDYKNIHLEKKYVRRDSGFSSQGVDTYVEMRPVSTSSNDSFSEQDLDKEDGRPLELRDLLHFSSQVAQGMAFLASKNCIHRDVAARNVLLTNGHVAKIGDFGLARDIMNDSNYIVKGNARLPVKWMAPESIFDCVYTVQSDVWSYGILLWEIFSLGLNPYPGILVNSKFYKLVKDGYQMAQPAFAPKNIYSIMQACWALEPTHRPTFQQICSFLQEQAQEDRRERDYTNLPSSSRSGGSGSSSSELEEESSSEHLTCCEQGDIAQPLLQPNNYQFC
Method: Inhibition of CSF-1R kinase activity by a test compound disclosed herein was estimated by AlphaScreen (PerkinElmer). […] Reactions were incubated at 30° C. for 45 min and stopped by adding 5 μL of 50 mM EDTA. Analysis of resulting product using an AlphaScreen kit, and counted with Enspire Alpha (PerkinElmer). […] The IC50 values of quinoxaline compounds of this invention against CSF-1R kinase were determined using the GraphPad Prism 5 software.

[3] = test system: MV4-11 human acute myeloid leukemia cell with FLT3-ITD mutation; assay: MV4-11 cell proliferation assay (CellTiter-96); format: cell-based; conditions: Cytotoxicity, MV4-11 cells, 72 hours
Method in brief: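 MV4-11 cells (FLT3-ITD, FLT3-dependent growth) seeded at 6500 cells/well, incubated overnight at 37° C., 5% CO2, then exposed to increasing compound concentrations for 72 hours. Viability read by CellTiter96 AQueous One reagent (4 hours), absorbance at 490 nm.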

[4] = test system: Kasumi-1 human acute myeloid leukemia cell with c-KIT N822K activating mutation; assay: Kasumi-1 cell proliferation assay (CellTiter-96); format: cell-based; conditions: Cytotoxicity, Kasumi-1 cells, 72 hours
Method in brief: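 Kasumi-1 cells, seeded at 64000 cells/well and incubated overnight at 37 °C, were exposed to increasing compound concentrations for 72 h. Viability was measured by CellTiter96 AQueous One reagent (4 h) and absorbance at 490 nm.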

[5] = test system: osteoclast precursors (osteoclast differentiation); assay: Osteoclast tartrate-resistant acid phosphatase assay; format: cell-based; conditions: 168 h, at 1 μM treatment, 7 days, RANKL and M-CSF, read-out: inhibition activity against osteoclast differentiation
Method: A serial dilution of test compound was dispensed into a 96-well black clear bottom plate. Compound was diluted by the addition of DMEM media supplemented with 10% characterized fetal bovine serum. Diluted compound was transferred to a 96-well black clear bottom plate. Three thousand osteoclast precursors (Lonza, Walkersville, Md.) were added per well in growth medium containing Receptor Activator of Nuclear Factor Kappa-beta ligand (RANKL) and M-CSF. […] At the end of the incubation period, 50 μL of supernatant from each well was transferred to a clear 96-well plate. Tartrate-resistant acid phosphatase activity in the supernatant samples was determined using an acid phosphatase assay kit (Sigma, St. Louis, Mo.). Absorbance was measured at 550 nm using a plate reader. […] The Inhibition activity against osteoclast differentiation for each compound at 1 μM treatment in duplicate was measured.

[6] = target: c-KIT kinase (Homo sapiens (Human), UniProt P10721); assay: c-KIT kinase assay (radiometric); format: biochemical
Sequence of c-KIT kinase (P10721 26-976): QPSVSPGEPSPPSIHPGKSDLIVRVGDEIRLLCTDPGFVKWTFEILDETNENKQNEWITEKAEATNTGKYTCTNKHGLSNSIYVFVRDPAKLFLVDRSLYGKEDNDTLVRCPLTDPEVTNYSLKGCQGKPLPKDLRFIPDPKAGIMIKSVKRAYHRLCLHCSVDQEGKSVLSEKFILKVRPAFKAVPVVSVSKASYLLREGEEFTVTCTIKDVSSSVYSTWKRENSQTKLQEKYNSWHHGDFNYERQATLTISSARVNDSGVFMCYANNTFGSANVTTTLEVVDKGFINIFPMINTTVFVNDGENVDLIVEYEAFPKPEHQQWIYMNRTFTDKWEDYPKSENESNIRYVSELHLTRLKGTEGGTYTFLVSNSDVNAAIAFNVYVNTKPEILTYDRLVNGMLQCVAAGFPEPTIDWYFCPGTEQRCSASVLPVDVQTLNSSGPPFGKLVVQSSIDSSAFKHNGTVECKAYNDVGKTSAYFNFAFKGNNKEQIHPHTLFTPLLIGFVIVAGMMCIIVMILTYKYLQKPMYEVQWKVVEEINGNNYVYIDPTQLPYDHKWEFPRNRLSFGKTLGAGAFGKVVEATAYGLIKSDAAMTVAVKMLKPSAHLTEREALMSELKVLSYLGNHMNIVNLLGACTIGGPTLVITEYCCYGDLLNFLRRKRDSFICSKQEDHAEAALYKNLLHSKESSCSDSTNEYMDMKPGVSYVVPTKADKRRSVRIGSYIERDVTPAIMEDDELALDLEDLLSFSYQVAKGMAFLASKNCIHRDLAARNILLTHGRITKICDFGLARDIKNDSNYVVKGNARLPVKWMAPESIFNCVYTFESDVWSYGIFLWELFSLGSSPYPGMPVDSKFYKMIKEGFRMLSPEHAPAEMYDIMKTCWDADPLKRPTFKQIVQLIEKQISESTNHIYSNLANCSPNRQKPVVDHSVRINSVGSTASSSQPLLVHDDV
Method in brief: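 Recombinant c-Kit (20 ng) with 2 μg Poly-(Glu4:Tyr1) in MOPS pH 7.0 buffer with MgCl2/MnCl2, 10 μM ATP plus [^33P]-ATP, 4% DMSO final, 60 min at 30° C. Stopped with phosphoric acid, filter-captured and scintillation counted; IC50 from curve fit.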

[7] = target: FLT3 kinase (Homo sapiens (Human), UniProt P36888); assay: FLT3 kinase assay (radiometric); format: biochemical; conditions: bound
Sequence of FLT3 kinase (P36888 27-993): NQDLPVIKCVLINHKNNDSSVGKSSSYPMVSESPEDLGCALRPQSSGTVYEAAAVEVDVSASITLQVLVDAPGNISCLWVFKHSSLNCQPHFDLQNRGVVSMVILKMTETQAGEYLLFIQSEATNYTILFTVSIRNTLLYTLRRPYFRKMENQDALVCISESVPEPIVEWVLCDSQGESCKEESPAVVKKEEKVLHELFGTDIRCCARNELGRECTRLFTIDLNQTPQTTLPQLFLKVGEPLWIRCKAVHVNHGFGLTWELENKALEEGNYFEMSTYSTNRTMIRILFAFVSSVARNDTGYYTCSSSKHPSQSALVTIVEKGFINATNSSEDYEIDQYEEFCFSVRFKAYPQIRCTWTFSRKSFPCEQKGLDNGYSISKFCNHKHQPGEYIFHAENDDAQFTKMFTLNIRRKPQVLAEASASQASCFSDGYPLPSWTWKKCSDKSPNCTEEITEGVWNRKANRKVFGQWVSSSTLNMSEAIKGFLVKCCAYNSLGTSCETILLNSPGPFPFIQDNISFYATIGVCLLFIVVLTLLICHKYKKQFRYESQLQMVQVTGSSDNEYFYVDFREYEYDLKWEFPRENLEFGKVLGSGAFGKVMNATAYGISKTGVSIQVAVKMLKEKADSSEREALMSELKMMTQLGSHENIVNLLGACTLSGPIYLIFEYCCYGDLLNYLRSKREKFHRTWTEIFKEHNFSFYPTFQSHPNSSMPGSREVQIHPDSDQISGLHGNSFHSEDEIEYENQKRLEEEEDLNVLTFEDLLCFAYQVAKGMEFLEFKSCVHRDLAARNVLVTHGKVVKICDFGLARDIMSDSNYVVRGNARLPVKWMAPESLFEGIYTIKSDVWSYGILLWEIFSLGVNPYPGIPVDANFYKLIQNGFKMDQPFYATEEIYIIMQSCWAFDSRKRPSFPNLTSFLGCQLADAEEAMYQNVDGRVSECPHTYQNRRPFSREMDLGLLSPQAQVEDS
Method in brief: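 Recombinant FLT3 (5 ng) phosphorylating poly(Glu4:Tyr1) (2 μg) with 10 μM ATP plus [^33P]-ATP in MOPS pH 7.0 buffer, 4% DMSO final, 60 min at 30° C. Reaction stopped with phosphoric acid, filter-captured and scintillation-counted; IC50 derived from dose-response.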

[8] = test system: CSF-1-dependent M-NFS-60 mouse myeloid leukemia cell; assay: M-NFS-60 cell proliferation assay (CellTiter-96); format: cell-based; conditions: Cytotoxicity, M-NFS-60 cells, 72 hours
Method in brief: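 CSF-1-dependent M-NFS-60 cells seeded at 2000 cells/well, settled overnight at 37 °C, 5% CO2, then exposed to increasing compound concentrations for 72 h. Viability read by CellTiter 96 AQueous One reagent (4 h) at 490 nm absorbance.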

[9] = target: PDGFRβ kinase (Homo sapiens (Human), UniProt P09619); assay: PDGFRβ kinase assay (radiometric); format: biochemical; conditions: bound
Sequence of PDGFRβ kinase (P09619 33-1106): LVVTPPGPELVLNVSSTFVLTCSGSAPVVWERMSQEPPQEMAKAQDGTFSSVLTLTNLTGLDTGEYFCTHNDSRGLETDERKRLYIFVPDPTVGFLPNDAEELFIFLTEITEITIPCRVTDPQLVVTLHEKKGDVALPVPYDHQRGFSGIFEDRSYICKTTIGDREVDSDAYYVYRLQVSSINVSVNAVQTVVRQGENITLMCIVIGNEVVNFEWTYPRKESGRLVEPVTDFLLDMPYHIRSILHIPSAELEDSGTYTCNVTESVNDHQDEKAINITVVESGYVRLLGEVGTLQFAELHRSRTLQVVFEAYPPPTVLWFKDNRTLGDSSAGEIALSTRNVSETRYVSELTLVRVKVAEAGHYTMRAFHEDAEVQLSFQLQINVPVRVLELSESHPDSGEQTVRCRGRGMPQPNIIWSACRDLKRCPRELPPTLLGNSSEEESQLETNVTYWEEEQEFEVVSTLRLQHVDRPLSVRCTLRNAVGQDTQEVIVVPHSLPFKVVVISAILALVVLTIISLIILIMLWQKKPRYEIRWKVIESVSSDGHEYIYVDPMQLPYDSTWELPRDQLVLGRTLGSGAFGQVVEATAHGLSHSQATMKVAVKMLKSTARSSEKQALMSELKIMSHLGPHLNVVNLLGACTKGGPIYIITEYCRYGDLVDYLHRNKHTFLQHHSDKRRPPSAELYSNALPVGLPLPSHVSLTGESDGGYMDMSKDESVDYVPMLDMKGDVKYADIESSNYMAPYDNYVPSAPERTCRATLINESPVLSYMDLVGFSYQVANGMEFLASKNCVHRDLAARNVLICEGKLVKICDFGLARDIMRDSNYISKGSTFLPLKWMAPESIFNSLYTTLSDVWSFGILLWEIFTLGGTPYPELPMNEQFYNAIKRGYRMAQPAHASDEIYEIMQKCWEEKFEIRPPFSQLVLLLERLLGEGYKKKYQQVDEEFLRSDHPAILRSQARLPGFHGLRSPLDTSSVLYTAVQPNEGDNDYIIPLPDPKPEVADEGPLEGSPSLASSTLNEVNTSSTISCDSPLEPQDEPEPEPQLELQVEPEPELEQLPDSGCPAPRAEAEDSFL
Method in brief: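 Radiometric assay: recombinant PDGFRβ with poly(Glu4:Tyr1) in MOPS pH 7.0 buffer containing Mg2+/Mn2+, 10 μM ATP plus [33P]-ATP, and compound at 4% DMSO final. Incubated 60 min at 30° C, stopped with phosphoric acid, filter-captured and scintillation-counted. IC50 from curve fitting.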

Row | IC50 [2] [nM] | IC50 ([6]; class symbol) [nM] | IC50 [7] [nM] | IC50 [9] [nM] | IC50 ([6]; bound) [nM] | Structure (SMILES) | IC50 [1] [nM] | IC50 [3] [nM] | IC50 [4] [nM] | inhibition at 1 µM [5] [%] | IC50 [8] [nM]
1 | < 100 | < 100 | > 1000 | > 1000 | – | COc1cc(Nc2ccc3ncc(N4CCOCC4)nc3c2C#N)ccc1OCc1cnn(C)c1 [Example 105, 6-((3-methoxy-4-((1-methyl-1H-pyrazol-4-yl)methoxy)phenyl)amino)-3-morpholinoquinoxaline-5-carbonitrile] | > 10000 | 1000 to 10000 | 300 to 1000 | > 50 | < 300
2 | < 100 | < 100 | > 1000 | > 1000 | – | COCc1ccc(COc2ccc(Nc3ccc4ncc(N5CCOCC5)nc4c3C#N)cc2OC)nc1 [Example 125, 6-((3-methoxy-4-((5-(methoxymethyl)pyridin-2-yl)methoxy)phenyl)amino)-3-morpholinoquinoxaline-5-carbonitrile] | > 10000 | > 10000 | < 300 | > 50 | 1000 to 10000
3 | < 100 | 100 to 300 | > 1000 | > 1000 | – | COc1cc(Nc2ccc3ncc(N4CCC4)nc3c2C#N)ccc1OCc1cccc(C#N)c1 [Example 87, 3-(azetidin-1-yl)-6-((4-((3-cyanobenzyl)oxy)-3-methoxyphenyl)amino)quinoxaline-5-carbonitrile] | > 10000 | > 10000 | 1000 to 10000 | > 50 | 300 to 1000
4 | < 100 | – | > 1000 | > 1000 | > 1000 | COc1ccc(COc2ncc(Nc3ccc4ncc(N5CCOCC5)nc4c3C#N)cc2OC)cn1 [Example 144, 6-((5-methoxy-6-((6-methoxypyridin-3-yl)methoxy)pyridin-3-yl)amino)-3-morpholinoquinoxaline-5-carbonitrile] | > 10000 | > 10000 | > 10000 | > 50 | < 300
5 | < 100 | < 100 | > 1000 | > 1000 | – | COc1cc(Nc2ccc3ncc(N4CCOCC4)nc3c2C#N)ccc1OCc1ccc(C)s1 [Example 124, 6-((3-methoxy-4-((5-methylthiophen-2-yl)methoxy)phenyl)amino)-3-morpholinoquinoxaline-5-carbonitrile] | 1000 to 10000 | 1000 to 10000 | 300 to 1000 | > 50 | < 300
6 | < 100 | < 100 | > 1000 | > 1000 | – | COc1cc(Nc2ccc3ncc(N4CCC(N(C)C)CC4)nc3c2C#N)ccc1OCc1cccc(F)c1 [Example 89, 3-(4-(dimethylamino)piperidin-1-yl)-6-((4-((3-fluorobenzyl)oxy)-3-methoxyphenyl)amino)quinoxaline-5-carbonitrile] | 1000 to 10000 | 1000 to 10000 | 1000 to 10000 | > 50 | < 300
7 | < 100 | < 100 | > 1000 | > 1000 | – | CCOc1ccc(COc2ccc(Nc3ccc4ncc(N5CCOCC5)nc4c3C#N)cc2OC)cn1 [Example 112, 6-((4-((6-ethoxypyridin-3-yl)methoxy)-3-methoxyphenyl)amino)-3-morpholinoquinoxaline-5-carbonitrile] | > 10000 | 1000 to 10000 | < 300 | > 50 | < 300
8 | < 100 | 300 to 1000 | > 1000 | > 1000 | – | COc1cc(Nc2ccc3ncc(N4CCOCC4)nc3c2C#N)ccc1OCc1ccc(CN(C)C)nc1 [Example 115, 6-((4-((6-((dimethylamino)methyl)pyridin-3-yl)methoxy)-3-methoxyphenyl)amino)-3-morpholinoquinoxaline-5-carbonitrile] | > 10000 | 1000 to 10000 | 1000 to 10000 | > 50 | < 300
9 | < 100 | < 100 | > 1000 | > 1000 | – | COc1cc(Nc2ccc3ncc(N4CCOCC4)nc3c2C#N)ccc1OCc1ccccc1 [Example 88, 6-((4-(benzyloxy)-3-methoxyphenyl)amino)-3-morpholinoquinoxaline-5-carbonitrile] | > 10000 | 1000 to 10000 | 300 to 1000 | > 50 | < 300
10 | < 100 | – | > 1000 | > 1000 | > 1000 | COc1ccc(COc2ccc(Nc3ccc4ncc(N5CCC(C)CC5)nc4c3C#N)cc2OC)cn1 [Example 69, 6-((3-methoxy-4-((6-methoxypyridin-3-yl)methoxy)phenyl)amino)-3-(4-methylpiperidin-1-yl)quinoxaline-5-carbonitrile] | > 10000 | > 10000 | > 10000 | > 50 | 300 to 1000
11 | < 100 | < 100 | > 1000 | > 1000 | – | CCc1ccc(COc2ccc(Nc3ccc4ncc(N5CCOCC5)nc4c3C#N)cc2OC)cn1 [Example 101, 6-((4-((6-ethylpyridin-3-yl)methoxy)-3-methoxyphenyl)amino)-3-morpholinoquinoxaline-5-carbonitrile] | > 10000 | 1000 to 10000 | < 300 | > 50 | < 300
12 | < 100 | < 100 | > 1000 | > 1000 | – | COc1cc(Nc2ccc3ncc(N4CCNCC4)nc3c2C#N)ccc1OCc1ccc(C)nc1 [Example 67, 6-((3-methoxy-4-((6-methylpyridin-3-yl)methoxy)phenyl)amino)-3-(piperazin-1-yl)quinoxaline-5-carbonitrile] | 1000 to 10000 | 1000 to 10000 | 1000 to 10000 | > 50 | < 300
13 | < 100 | 100 to 300 | > 1000 | > 1000 | – | COc1ccc(COc2ccc(Nc3ccc4ncc(N5CCOCC5)nc4c3C#N)cc2F)cc1 [Example 56, 6-((3-fluoro-4-((4-methoxybenzyl)oxy)phenyl)amino)-3-morpholinoquinoxaline-5-carbonitrile] | > 10000 | 300 to 1000 | 1000 to 10000 | > 50 | 300 to 1000
14 | < 100 | 300 to 1000 | > 1000 | > 1000 | – | COc1ccc(COc2ccc(Nc3ccc4ncc(NC5CCN(Cc6ccccc6)CC5)nc4c3C#N)cc2OC)cc1 [Example 77, 3-((1-benzylpiperidin-4-yl)amino)-6-((3-methoxy-4-((4-methoxybenzyl)oxy)phenyl)amino)quinoxaline-5-carbonitrile] | 1000 to 10000 | 1000 to 10000 | 1000 to 10000 | > 50 | 300 to 1000
